# Test results: paper PMC8482776 (ACS Omega, 2021)
# Legend:
# [1] = tested on: C. albicans (ATCC 10231); assay: Microdilution MIC90, strain A; type: cell-based; conditions: 24 h, strain A, yeast, 24 h at 37 °C, triplicate
# [2] = tested on: C. krusei (ATCC 6258); assay: Microdilution MIC90, strain B; type: cell-based; conditions: yeast, 24 h at 37 °C, triplicate
# [3] = tested on: C. parapsilosis (ATCC 22019); assay: Microdilution MIC90, strain D; type: cell-based; conditions: 24 h
# [4] = tested on: C. tropicalis (PTCC 5028); assay: Microdilution MIC90, strain E; type: cell-based; conditions: 24 h
# [5] = tested on: Asp. nidulans (PTCC 5014); assay: Microdilution MIC90, strain F; type: cell-based, Aspergillus nidulans; conditions: filamentous fungi, 48 h at 37 °C, triplicate
# [6] = tested on: Asp. flavus (ATCC 204304); assay: Microdilution MIC90, strain G; type: cell-based, Aspergillus flavus; conditions: filamentous fungi, 48 h at 37 °C, triplicate
# [7] = tested on: Asp. fumigatus (PTCC 5009); assay: Microdilution MIC90, strain H; type: cell-based; conditions: filamentous fungi, 48 h at 37 °C, triplicate
# [8] = tested on: Asp. niger (PTCC 5154); assay: Microdilution MIC90, strain I; type: cell-based, Aspergillus niger; conditions: filamentous fungi, 48 h at 37 °C, triplicate
# [9] = tested on: Asp. terreus (PTCC 5023); assay: Microdilution MIC90, strain J; type: cell-based, Aspergillus terreus; conditions: Aspergillus terreus, PTCC5023, 48 h, filamentous fungi, 48 h at 37 °C, triplicate
# [10] = tested on: T. rubrum (PTCC 5143); assay: Microdilution MIC90, strain K; type: cell-based, Trichophyton rubrum; conditions: filamentous fungi, 48 h at 37 °C, triplicate
# [11] = tested on: T. mentagrophytes (PTCC 5054); assay: Microdilution MIC90, strain M; type: cell-based; conditions: Trichophyton mentagrophytes, PTCC5054, 48 h
# [12] = tested on: T. schoenleinii (PTCC 5221); assay: Microdilution MIC90, strain N; type: cell-based; conditions: Trichophyton schoenleinii, PTCC5221, 48 h
# [13] = tested on: M. canis (PTCC 5069); assay: Microdilution MIC90, strain O; type: cell-based; conditions: Microsporum canis, PTCC5069, 48 h
# [14] = tested on: C. glabrata (ATCC 90030); assay: Microdilution MIC90, strain C; type: cell-based; conditions: 24 h, yeast, 24 h at 37 °C, triplicate
# [15] = Aspergillus nidulans, PTCC5014, 48 h
# [16] = Aspergillus flavus, ATCC204304, 48 h
# [17] = Aspergillus fumigatus, PTCC5009, 48 h
# [18] = Aspergillus niger, PTCC5154, 48 h
# [19] = Trichophyton rubrum, PTCC5143, 48 h
MIC90 [1] [µg/mL],MIC90 ([2]; 24 h) [µg/mL],MIC90 [2] [μg·mL^–1],MIC90 [3] [µg/mL],MIC90 [4] [µg/mL],"MIC90 [5, 15] [µg/mL]","MIC90 [6, 16] [µg/mL]","MIC90 [7, 17] [µg/mL]",MIC90 [7] [μg·mL^–1],"MIC90 [8, 18] [µg/mL]",MIC90 [8] [μg·mL^–1],MIC90 [9] [µg/mL],"MIC90 [10, 19] [µg/mL]",MIC90 [11] [µg/mL],MIC90 [12] [µg/mL],MIC90 [13] [µg/mL],MIC90 [14] [µg/mL],MIC90 [5] [μg·mL^–1],MIC90 [6] [μg·mL^–1],MIC90 [10] [μg·mL^–1],Compound
32,1 to 16,1,8,32,16,8,2 to 4,1,2 to 4,4,8,2,16,8,2,,,,,"O=C(Nc1ccc(Cl)cc1)Nc1nnc(SCC(O)(Cn2cncn2)c2ccc(F)cc2F)s1 (stereo not drawn) [Compound 8a, 1-(4-Chlorophenyl)-3-(5-((2-(2,4-difluorophenyl)-2-hydroxy-3-(1H-1,2,4-triazol-1-yl)propyl)thio)-1,3,4-thiadiazol-2-yl)urea]"
32,,,8,32,2 to 4,8,64,,64,,32,4,32,32,64,32,4,,,"O=C(Nc1ccc(Br)cc1)Nc1nnc(SCC(O)(Cn2cncn2)c2ccc(F)cc2F)s1 (stereo not drawn) [Compound 8d, 1-(4-Bromophenyl)-3-(5-((2-(2,4-difluorophenyl)-2-hydroxy-3-(1H-1,2,4-triazol-1-yl)propyl)thio)-1,3,4-thiadiazol-2-yl)urea]"
,,,8,,8,2 to 4,,,,,,,,,,,,4,,"O=C(Nc1nnc(SCC(O)(Cn2cncn2)c2ccc(F)cc2F)s1)Nc1ccccc1Cl (stereo not drawn) [Compound 8l, 1-(2-Chlorophenyl)-3-(5-((2-(2,4-difluorophenyl)-2-hydroxy-3-(1H-1,2,4-triazol-1-yl)propyl)thio)-1,3,4-thiadiazol-2-yl)urea]"
32,,,4,16,8,8,32,,32,,8,2 to 4,16,16,16,,,,4,"O=C(Nc1ccc(Cl)c(Cl)c1)Nc1nnc(SCC(O)(Cn2cncn2)c2ccc(F)cc2F)s1 (stereo not drawn) [Compound 8q, 1-(3,4-Dichlorophenyl)-3-(5-((2-(2,4-difluorophenyl)-2-hydroxy-3-(1H-1,2,4-triazol-1-yl)propyl)thio)-1,3,4-thiadiazol-2-yl)urea]"

# The next lines start with the compound.
Compound,MIC90 [1] [µg/mL],MIC90 ([2]; 24 h) [µg/mL],MIC90 [2] [μg·mL^–1],MIC90 [3] [µg/mL],MIC90 [4] [µg/mL],"MIC90 [5, 15] [µg/mL]","MIC90 [6, 16] [µg/mL]","MIC90 [7, 17] [µg/mL]",MIC90 [7] [μg·mL^–1],"MIC90 [8, 18] [µg/mL]",MIC90 [8] [μg·mL^–1],MIC90 [9] [µg/mL],"MIC90 [10, 19] [µg/mL]",MIC90 [11] [µg/mL],MIC90 [12] [µg/mL],MIC90 [13] [µg/mL],MIC90 [14] [µg/mL],MIC90 [5] [μg·mL^–1],MIC90 [6] [μg·mL^–1],MIC90 [10] [μg·mL^–1]
"COc1cccc(NC(=O)Nc2nnc(SCC(O)(Cn3cncn3)c3ccc(F)cc3F)s2)c1 (stereo not drawn) [Compound 8h, 1-(5-((2-(2,4-Difluorophenyl)-2-hydroxy-3-(1H-1,2,4-triazol-1-yl)propyl)thio)-1,3,4-thiadiazol-2-yl)-3-(3-methoxyphenyl)urea]",16,8,,4,16,2 to 4,8,16,,8,,16,2,16,32,32,,4,,
"O=C(Nc1nnc(SCC(O)(Cn2cncn2)c2ccc(F)cc2F)s1)Nc1ccccc1C(F)(F)F (stereo not drawn) [Compound 8k, 1-(5-((2-(2,4-Difluorophenyl)-2-hydroxy-3-(1H-1,2,4-triazol-1-yl)propyl)thio)-1,3,4-thiadiazol-2-yl)-3-(2-(trifluoromethyl)phenyl)urea]",,,,4,16,2 to 4,2 to 4,16,,16,,16,8,32,16,16,16,4,2,
"Cc1ccccc1NC(=O)Nc1nnc(SCC(O)(Cn2cncn2)c2ccc(F)cc2F)s1 (stereo not drawn) [Compound 8n, 1-(5-((2-(2,4-Difluorophenyl)-2-hydroxy-3-(1H-1,2,4-triazol-1-yl)propyl)thio)-1,3,4-thiadiazol-2-yl)-3-(o-tolyl)urea]",,,,,,2 to 4,8,,,,,,,,,,,4,,
